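Protocol summary: plate cells (96-well), add compound at 5 concentrations, incubate 48 h, interpolate endpoints linearly. TGI is the concentration that stops growth completely.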
How the values were obtained:
Experiment in all cases: inhibition of tumour cell growth, NCI panel, 48 h
[1] = system: OVCAR-3 ovarian
[2] = system: SK-OV-3 ovarian
[3] = system: MDA-MB-435
[4] = system: RXF 393 renal
[5] = system: SNB-19 CNS
[6] = system: SR leukemia
[7] = system: NCI-H460 lung
[8] = system: EKVX NSCLC
[9] = system: BT-549 breast
[10] = system: DU-145 prostate
[11] = system: HCT-15 colon
[12] = system: NCI-H226 lung
[13] = system: SK-MEL-28 melanoma
[14] = system: ACHN renal
[15] = system: KM12 colon
[16] = system: UACC-257 melanoma
[17] = system: U251 CNS
[18] = system: PC-3 prostate
[19] = system: UACC-62 melanoma
[20] = system: DMS 273 small cell lung

## Cc1cc(C#N)c(Nc2ccc(F)cc2[N+](=O)[O-])s1
[1]
  TGI: > 100 µM
[2]
  TGI: > 100 µM
[3]
  TGI: > 100 µM
[4]
  TGI: > 100 µM
[5]
  TGI: > 100 µM
[6]
  TGI: > 100 µM
[7]
  TGI: > 100 µM
[8]
  TGI: > 100 µM
[9]
  TGI: > 100 µM
[10]
  TGI: > 100 µM
[11]
  TGI: > 100 µM
[12]
  TGI: > 100 µM
[13]
  TGI: > 100 µM
[14]
  TGI: > 100 µM
[15]
  TGI: > 100 µM
[16]
  TGI: > 100 µM
[17]
  TGI: > 100 µM
[18]
  TGI: > 100 µM
[19]
  TGI: > 100 µM

## COc1ccc2nc3cc([N+](=O)[O-])ccc3c(Nc3ccc(S(=O)(=O)Nc4ncccn4)cc3)c2c1
[1]
  TGI: > 100 µM
[2]
  TGI: > 100 µM
[3]
  TGI: > 100 µM
[4]
  TGI: > 100 µM
[5]
  TGI: > 53.6 µM
[6]
  TGI: > 30.5 µM
[7]
  TGI: > 100 µM
[8]
  TGI: > 100 µM
[9]
  TGI: > 100 µM
[10]
  TGI: > 100 µM
[11]
  TGI: > 100 µM
[12]
  TGI: > 100 µM
[13]
  TGI: > 100 µM
[14]
  TGI: > 71.8 µM
[15]
  TGI: > 100 µM
[16]
  TGI: > 100 µM
[17]
  TGI: > 100 µM
[18]
  TGI: > 100 µM
[19]
  TGI: > 100 µM

## COC(=O)c1sc2c(=O)c(C(=O)OC)c(C(=O)OC)sc2c(=O)c1C(=O)OC
[1]
  TGI: > 100 µM
[2]
  TGI: > 100 µM
[3]
  TGI: > 100 µM
[4]
  TGI: > 100 µM
[5]
  TGI: > 100 µM
[6]
  TGI: > 100 µM
[7]
  TGI: > 100 µM
[8]
  TGI: > 100 µM
[9]
  TGI: > 100 µM
[10]
  TGI: > 100 µM
[11]
  TGI: > 100 µM
[12]
  TGI: > 100 µM
[13]
  TGI: > 100 µM
[14]
  TGI: > 100 µM
[15]
  TGI: > 100 µM
[16]
  TGI: > 100 µM
[17]
  TGI: > 100 µM
[18]
  TGI: > 100 µM
[19]
  TGI: > 100 µM

## CCOC(=O)[C@@H](NC(=O)OC(C)(C)C)[C@@H](O)C(=O)OCC
[1]
  TGI: > 100 µM
[2]
  TGI: > 100 µM
[3]
  TGI: > 100 µM
[4]
  TGI: > 100 µM
[5]
  TGI: > 100 µM
[6]
  TGI: > 100 µM
[7]
  TGI: > 100 µM
[8]
  TGI: > 100 µM
[9]
  TGI: > 100 µM
[10]
  TGI: > 100 µM
[11]
  TGI: > 100 µM
[12]
  TGI: > 100 µM
[13]
  TGI: > 100 µM
[14]
  TGI: > 100 µM
[15]
  TGI: > 100 µM
[16]
  TGI: > 100 µM
[17]
  TGI: > 100 µM
[18]
  TGI: > 100 µM
[19]
  TGI: > 100 µM

## Cc1ccc(N=C2OP(=O)(Nc3ccc(C)cc3)Oc3ccccc32)cc1 (stereo not given)
[1]
  TGI: > 100 µM
[2]
  TGI: > 100 µM
[3]
  TGI: > 100 µM
[4]
  TGI: > 100 µM
[5]
  TGI: > 100 µM
[6]
  TGI: > 100 µM
[7]
  TGI: > 100 µM
[8]
  TGI: > 100 µM
[9]
  TGI: > 100 µM
[10]
  TGI: > 100 µM
[11]
  TGI: > 100 µM
[12]
  TGI: > 100 µM
[13]
  TGI: > 100 µM
[14]
  TGI: > 100 µM
[15]
  TGI: > 100 µM
[16]
  TGI: > 100 µM
[17]
  TGI: > 100 µM
[18]
  TGI: > 100 µM
[19]
  TGI: > 100 µM

## Cn1ccc(=NS(=O)(=O)c2ccccc2)cc1
[1]
  TGI: > 100 µM
[2]
  TGI: > 100 µM
[4]
  TGI: > 100 µM
[5]
  TGI: > 100 µM
[7]
  TGI: > 100 µM
[8]
  TGI: > 100 µM
[13]
  TGI: > 100 µM
[14]
  TGI: > 100 µM
[15]
  TGI: > 100 µM
[20]
  TGI: > 100 µM
[16]
  TGI: > 100 µM
[17]
  TGI: > 100 µM

## O=[N+]([O-])c1cccc(C2=NN(c3ccccc3)C3c4ccccc4OCC23)c1 (stereo not given)
[1]
  TGI: > 100 µM
[2]
  TGI: > 100 µM
[4]
  TGI: > 100 µM
[5]
  TGI: > 100 µM
[7]
  TGI: > 100 µM
[8]
  TGI: > 100 µM
[13]
  TGI: > 100 µM
[14]
  TGI: > 100 µM
[15]
  TGI: > 100 µM
[20]
  TGI: > 100 µM
[16]
  TGI: > 100 µM
[17]
  TGI: > 100 µM

## Cn1c2ccccc2c2c3c(c4c5ccccc5n(C5OC(CO)C(O)C(O)C5O)c4c21)C(=O)OC3=O (stereo not given)
[1]
  TGI: > 100 µM
[2]
  TGI: > 100 µM
[3]
  TGI: > 100 µM
[4]
  TGI: > 100 µM
[5]
  TGI: > 100 µM
[6]
  TGI: > 100 µM
[7]
  TGI: > 100 µM
[8]
  TGI: > 100 µM
[9]
  TGI: > 100 µM
[10]
  TGI: > 100 µM
[11]
  TGI: > 100 µM
[12]
  TGI: > 100 µM
[13]
  TGI: > 100 µM
[14]
  TGI: > 100 µM
[15]
  TGI: > 100 µM
[16]
  TGI: > 100 µM
[17]
  TGI: > 100 µM
[18]
  TGI: > 100 µM
[19]
  TGI: > 100 µM

## CCOC(=O)[C@@]1(C(C)=O)CC(C)=C(C)C[S@]1=O
[1]
  TGI: > 100 µM
[2]
  TGI: > 100 µM
[3]
  TGI: > 100 µM
[4]
  TGI: > 100 µM
[5]
  TGI: > 100 µM
[6]
  TGI: > 100 µM
[7]
  TGI: > 100 µM
[8]
  TGI: > 100 µM
[9]
  TGI: > 100 µM
[10]
  TGI: > 100 µM
[11]
  TGI: > 100 µM
[12]
  TGI: > 100 µM
[13]
  TGI: > 100 µM
[14]
  TGI: > 100 µM
[15]
  TGI: > 100 µM
[16]
  TGI: > 100 µM
[17]
  TGI: > 100 µM
[18]
  TGI: > 100 µM
[19]
  TGI: > 100 µM

## O=C1/C(=C/c2ccccc2)CCc2ccc([N+](=O)[O-])cc21
[1]
  TGI: > 100 µM
[2]
  TGI: > 100 µM
[3]
  TGI: > 100 µM
[4]
  TGI: 77.7 µM
[5]
  TGI: 91.3 µM
[6]
  TGI: > 63.3 µM
[7]
  TGI: > 100 µM
[8]
  TGI: > 100 µM
[9]
  TGI: > 94.4 µM
[10]
  TGI: > 100 µM
[11]
  TGI: > 100 µM
[12]
  TGI: > 100 µM
[13]
  TGI: > 100 µM
[14]
  TGI: > 100 µM
[15]
  TGI: > 100 µM
[16]
  TGI: > 100 µM
[17]
  TGI: > 100 µM
[18]
  TGI: > 100 µM
[19]
  TGI: > 100 µM

## N#CC1(C#N)[C@@H]2CCC=C(Sc3ccccc3)[C@@H]21
[1]
  TGI: 31.1 µM
[2]
  TGI: 39.6 µM
[3]
  TGI: 26.8 µM
[4]
  TGI: 26.3 µM
[5]
  TGI: 97.9 µM
[6]
  TGI: > 100 µM
[7]
  TGI: 53.6 µM
[8]
  TGI: 35.4 µM
[9]
  TGI: 44.4 µM
[10]
  TGI: 30.4 µM
[11]
  TGI: 51.1 µM
[12]
  TGI: 36.3 µM
[13]
  TGI: 28.9 µM
[14]
  TGI: 33.1 µM
[15]
  TGI: 28.5 µM
[16]
  TGI: 42.4 µM
[17]
  TGI: 30.1 µM
[18]
  TGI: 27.5 µM
[19]
  TGI: 37.6 µM
